The source of these data is patent publication US12617762B2, “Carboxy derivatives with antiinflamatory properties” (Sitryx Therapeutics Limited, priority 2019, dated 2026).

Data set [1] deals with IL-1β cytokine output from THP-1s. The data set is described as follows: THP-1 AlphaLISA IL-1β cytokine inhibition assay. The class given is cell-based. The note with it: for IC50: Homo sapiens; for IL-1β lowering, result in words: THP-1 IL-1β assay. In outline: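 THP-1 cells differentiated with PMA for 72 h, pre-incubated with compound 30 min, then LPS-primed 24 h and Nigericin-stimulated 1 h (37° C./5% CO2). Supernatant IL-1β measured by AlphaLISA; percentage inhibition normalised to +LPS (high) and −LPS (low) plate controls.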
A general note: Bead proximity is the source of the signal in Alpha formats.

Data set [2] relates to NRF2 (nuclear factor erythroid 2-related factor 2). The data set is described as follows: NRF2 +/-GSH activation assay (DiscoverX PathHunter NRF2 translocation kit, U2OS cells). The class given is cell-based. In outline:
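U2OS PathHunter eXpress cells, 24 h post-plating, treated with compound ±GSH (+GSH arm: 30 min compound–GSH pre-incubation, 6 mM working GSH), then 6 h at 37 °C. NRF2 nuclear translocation read by enzyme-fragment-complementation chemiluminescence; % activation normalised to DMF high and untreated low controls.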

A short description of data set [3]: Hepatocyte stability assay, mouse. The class given is in vitro ADME. Particulars: mouse, hepatocytes; for hepatocyte CLint at 10 μM: Hepatocyte stability Clint; for half-life at 10 μM: Hepatocyte stability T½. In outline:
(§1)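 Cryopreserved hepatocytes (viability >70%), 0.5×10^6 cells/mL in Leibovitz buffer, preincubated 10 min at 37° C, then 10 μM compound (0.1% DMSO) in duplicate; sampled 0-60 min, acetonitrile quench, LC-MS/MS. CLint and half-life from ln % remaining vs time; buffer-only incubation as negative control.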

A short description of data set [4]: Hepatocyte stability assay, human. The class given is in vitro ADME. Particulars: human, hepatocytes; for hepatocyte CLint at 10 μM: Hepatocyte stability Clint; for half-life at 10 μM: Hepatocyte stability T½. In outline: as §1
The mark [5] stands for this setting: THP-1, differentiated THP-1 cells, LPS then nigericin.
The mark [6] stands for this setting: +GSH, 30 minute compound-GSH pre-incubation, read-out: NRF2 activation +GSH EC50.
[7] abbreviates: +GSH, normalised to DMF high control.
The mark [8] stands for this setting: −GSH, U2OS PathHunter cells, 6 hours compound treatment, read-out: NRF2 activation −GSH EC50.
Setting [9] is: −GSH, normalised to DMF high control.

Where two headings read alike, the source gives them in different places. Bounds are passed on as bounds.

As a reminder, the IC50 is the concentration that inhibits the measured activity by half. Low readings indicate greater potency, high ones weaker potency. What is called EC50 is the concentration needed to bring the measured effect to its halfway point. Broadly, the hepatocyte CLint is the rate of metabolic loss divided by the concentration. A word on the half-life: it is the time in which the quantity being followed falls by half. As for `C=C(Cc1nc(CCCCCCC(C)(F)F)no1)C(=O)O` [Example 31, 2-((3-(7,7-difluorooctyl)-1,2,4-oxadiazol-5-yl)methyl)acrylic acid], the IC50 in data set [1] (setting [5]) is > 100 µM. For the same compound, in data set [1], the “IL-1β lowering, result in words” value is recorded as “not effective”. The figures for the EC50 in data set [2] (setting [6]) and in data set [2] (setting [8]) were 40.9 µM and 35 µM, respectively. Further, in data set [2] (setting [7]), the “NRF2 activation +GSH Emax” value was 127%. In addition, the “NRF2 activation −GSH Emax” value in data set [2] (setting [9]) is on record as 178%. Moreover, the intrinsic clearance (hepatocyte CLint) at 10 μM in data set [3] amounted to 42 µL/min/1e6 cells; in data set [4], 5 µL/min/1e6 cells. Besides, the half-life at 10 μM is 0.45 h in data set [3] and 4.1 h in data set [4].
In data set [1] (setting [5]), `[2H]C([2H])([2H])C([2H])([2H])C([2H])([2H])C([2H])([2H])C([2H])([2H])C([2H])([2H])C([2H])([2H])C([2H])([2H])c1noc(CC(=C)C(=O)O)n1` [Example 34, 2-((3-(octyl-d17)-1,2,4-oxadiazol-5-yl)methyl)acrylic acid] displayed an IC50 of 9.5 µM. The results for the EC50 in data set [2] (setting [6]) and in data set [2] (setting [8]) were 4.7 µM and 3.7 µM, respectively. For the same compound, the “NRF2 activation +GSH Emax” value in data set [2] (setting [7]) is given as 167%. Besides, the “NRF2 activation −GSH Emax” value in data set [2] (setting [9]) is 222%. In addition, the intrinsic metabolic clearance (hepatocyte CLint) at 10 μM in data set [3] is 374 µL/min/1e6 cells; in data set [4], 78 µL/min/1e6 cells. Further, the half-life at 10 μM came to 0.0667 h in data set [3] and 0.3 h in data set [4].
Take `C=C(Cc1nc(Cc2ccc(Cl)cc2)no1)C(=O)O` [Example 4, 2-((3-(4-chlorobenzyl)-1,2,4-oxadiazol-5-yl)methyl)acrylic acid]: 49.3 µM corresponded to half-maximal inhibition in data set [1] (setting [5]) (IC50). Also, the EC50 is > 100 µM in data set [2] (setting [6]) and 40.5 µM in data set [2] (setting [8]). Further, the “NRF2 activation +GSH Emax” value in data set [2] (setting [7]) turned out to be 23%. The “NRF2 activation −GSH Emax” value in data set [2] (setting [9]) is given as 47%. The intrinsic metabolic clearance (hepatocyte CLint) at 10 μM in data set [3] was 13 µL/min/1e6 cells; in data set [4], < 3 µL/min/1e6 cells. Besides, the half-life at 10 μM was 1.55 h in data set [3] and > 7.67 h in data set [4].
`C=C(Cc1nc(C(F)(F)c2ccc(OC(F)(F)F)cc2)no1)C(=O)O` [Example 94, 2-((3-(difluoro(4-(trifluoromethoxy)phenyl)methyl)-1,2,4-oxadiazol-5-yl)methyl)acrylic acid] displayed an IC50 in data set [1] (setting [5]) of 20.5 µM. The EC50 worked out at 13.8 µM in data set [2] (setting [6]) and 7.9 µM in data set [2] (setting [8]). Also, the “NRF2 activation +GSH Emax” value in data set [2] (setting [7]) came out at 183%. In addition, the “NRF2 activation −GSH Emax” value in data set [2] (setting [9]) is 208%. Besides, the hepatocyte CLint at 10 μM was 29 µL/min/1e6 cells in data set [3] and < 3 µL/min/1e6 cells in data set [4]. Further, the half-life at 10 μM in data set [3] is 1.1 h; in data set [4], > 7.67 h.
As to `CCCCOc1ccc(-c2noc(/C=C(\C)C(=O)O)n2)cc1` [Example 167], the IC50 in data set [1] (THP-1, Table 3, head to head comparison of exo vs endo double bond compounds) was > 100 µM; in data set [1] (setting [5]) it was > 100 µM. Further, the EC50 in data set [2] (setting [6]) is > 100 µM; in data set [2] (−GSH, Table 5 exo vs endo comparison, read-out: −GSH EC50), > 100 µM; in data set [2] (setting [8]), > 100 µM. Further, the “NRF2 activation +GSH Emax” value in data set [2] (setting [7]) is reported as 15%. For the same compound, the “NRF2 activation −GSH Emax” value in data set [2] (setting [9]) is reported as 100%. Moreover, the “−GSH Emax” value in data set [2] (−GSH, normalised to DMF high control, Table 5 exo vs endo comparison) was found to be 100%. Moreover, the hepatocyte CLint at 10 μM in data set [3] came to 331 µL/min/1e6 cells; in data set [4], 35 µL/min/1e6 cells. The half-life at 10 μM in data set [3] was 0.1 h; in data set [4], 0.583 h.
For the compound `C=C(Cc1nc(Cc2ccc(Cl)c(Cl)c2)no1)C(=O)O` [Example 14, 2-((3-(3,4-dichlorobenzyl)-1,2,4-oxadiazol-5-yl)methyl)acrylic acid], the IC50 in data set [1] (setting [5]) is > 100 µM. The “IL-1β lowering, result in words” value in data set [1] is reported as “not effective”. Besides, the values for the EC50 in data set [2] (setting [6]) and in data set [2] (setting [8]) were 52.2 µM and 21.8 µM, respectively. Also, the “NRF2 activation +GSH Emax” value in data set [2] (setting [7]) was determined as 46%. Besides, the “NRF2 activation −GSH Emax” value in data set [2] (setting [9]) was 78%. The hepatocyte CLint at 10 μM in data set [3] amounted to 18 µL/min/1e6 cells; in data set [4], 6 µL/min/1e6 cells. For the same compound, the half-life at 10 μM in data set [3] was determined as 1.2 h; in data set [4] it was 4 h.
